Reference: PubChem BioAssay AID1259411 (Chemical Carcinogenesis Research Information System (CCRIS), 2018)
Active and inactive are the calls of the source. The rule behind the calls is not given here.

Tested on: rodent carcinogenicity bioassays, tumor incidence
Assay: CCRIS carcinogenicity studies
Method in brief: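 Archive of carcinogenicity, mutagenicity, tumor promotion and tumor inhibition results drawn from journals, NCI reports and other sources, expert-reviewed; covers 1985-2011 and is no longer updated.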

For O=C1c2ccccc2C(=O)N1SC(Cl)(Cl)Cl, the carcinogen call (Species: MOUSE, Strain/Sex: B6C3F1/FEMALE, Route: ORAL, Dose: 0, 1000, 5000, 10000 PPM IN DIET FOR 104 WK (STUDY DURATION: 104 WK), Dose: 0, 1000, 5000, 10000 PPM IN DIET FOR 104 WK (STUDY DURATION: 104 WK), Tumor Site: Type of Lesion: DUODENUM: CARCINOMA OR ADENOMA) was “active; positive”, the carcinogen call (Species: MOUSE, Strain/Sex: B6C3F1/MALE, Route: ORAL, Dose: 0, 1000, 5000, 10000 PPM IN DIET FOR 104 WK (STUDY DURATION: 104 WK), Dose: 0, 1000, 5000, 10000 PPM IN DIET FOR 104 WK (STUDY DURATION: 104 WK), Tumor Site: Type of Lesion: NON-GLANDULAR STOMACH: PAPILLOMA OR SQUAMOUS CELL CARCINOMA, DUODENUM: CARCINOMA OR ADENOMA) was “active; positive” and the carcinogen call (Species: Mouse, Strain/Sex: B6C3F1/Female (52/Group), Route: Oral, Dose: 0, 1000, 5000/3500, 10,000/7000 ppm (doses reduced at wk 21) of 88-89% folpet in diet for 2 yr, study duration 2 yr, Dose: 0, 1000, 5000/3500, 10,000/7000 ppm (doses reduced at wk 21) of 88-89% folpet in diet for 2 yr, study duration 2 yr, Tumor Site: Type of Lesion: Stomach: papilloma and squamous cell carcinoma combined (2, 2, 5, 7). Duodenum: adenomas and carcinomas (1, 2, 10, 19).) was “active; positive”. The carcinogen call (Species: Mouse, Strain/Sex: B6C3F1/Male (52/Group), Route: Oral, Dose: 0, 1000, 5000/3500, 10,000/7000 ppm (doses reduced at wk 21) of 88-89% folpet in diet for 2 yr, study duration 2 yr, Dose: 0, 1000, 5000/3500, 10,000/7000 ppm (doses reduced at wk 21) of 88-89% folpet in diet for 2 yr, study duration 2 yr, Tumor Site: Type of Lesion: Stomach: papilloma and squamous cell carcinoma combined (0, 2, 6, 3). Duodenum: adenomas and carcinomas (0, 4, 17, 25)) was “active; positive”, the carcinogen call (Species: Rat, Strain/Sex: Strain not specified in Department of Pesticides Regulation report /Female (60/Group), Route: Oral, Dose: 0, 200, 800, 3200 ppm of 89.5% folpet in diet for 105 wk, study duration 105 wk, Dose: 0, 200, 800, 3200 ppm of 89.5% folpet in diet for 105 wk, study duration 105 wk) was “inactive; negative” and the carcinogen call (Species: Rat, Strain/Sex: Strain not specified in Department of Pesticides Regulation report /Male (60/Group), Route: Oral, Dose: 0, 200, 800, 3200 ppm of 89.5% folpet in diet for 105 wk, study duration 105 wk, Dose: 0, 200, 800, 3200 ppm of 89.5% folpet in diet for 105 wk, study duration 105 wk) was “inactive; negative. increased incidence of thyroid tumors judged by reviewers as equivocal”.

With O=[N+]([O-])c1ccc2ncccc2c1 the carcinogen call (Species: RAT, Strain/Sex: F344/MALE,FEMALE, Route: ORAL, Dose: 0.05% IN DIET FOR 2 YR) was “inactive; negative”.

In the case of CC(C)C(C(=O)OC(C#N)c1cccc(Oc2ccccc2)c1)c1ccc(Cl)cc1 (configuration not stated), the carcinogen call (Species: MOUSE, Strain/Sex: B6C3F1/FEMALE, Route: ORAL, Dose: 0, 10, 50, 250, 1250 PPM IN THE DIET FOR 2 YR (STUDY DURATION: 2 YR), Dose: 0, 10, 50, 250, 1250 PPM IN THE DIET FOR 2 YR (STUDY DURATION: 2 YR)) is reported as “inactive; negative”, the carcinogen call (Species: MOUSE, Strain/Sex: B6C3F1/MALE, Route: ORAL, Dose: 0, 10, 50, 250, 1250 PPM IN THE DIET FOR 2 YR (STUDY DURATION: 2 YR), Dose: 0, 10, 50, 250, 1250 PPM IN THE DIET FOR 2 YR (STUDY DURATION: 2 YR)) is reported as “inactive; negative” and the carcinogen call (Species: MOUSE, Strain/Sex: C57BL/FEMALE, Route: INTRAGASTRIC, Dose: 0, 40, 80 MG/KG IN ARACHIS OIL 5/WK FOR 104 WK (STUDY DURATION: 120 WK), Dose: 0, 40, 80 MG/KG IN ARACHIS OIL 5/WK FOR 104 WK (STUDY DURATION: 120 WK)) is reported as “inactive; negative”. The carcinogen call (Species: MOUSE, Strain/Sex: C57BL/MALE, Route: INTRAGASTRIC, Dose: 0, 40, 80 MG/KG IN ARACHIS OIL 5/WK FOR 104 WK (STUDY DURATION: 120 WK), Dose: 0, 40, 80 MG/KG IN ARACHIS OIL 5/WK FOR 104 WK (STUDY DURATION: 120 WK)) was “inactive; negative”, the carcinogen call (Species: RAT, Strain/Sex: SPRAGUE-DAWLEY/MALE,FEMALE, Route: ORAL) was “inactive; negative” and the carcinogen call (Species: Rat, Strain/Sex: Sprague-Dawley/Male and female (93/Experimental group and 183/Control group), Route: Oral, Dose: 0, 1, 5, 25, 250 ppm in diet for 2 yr, study duration 2 yr, Dose: 0, 1, 5, 25, 250 ppm in diet for 2 yr, study duration 2 yr) was “inactive; negative”.

For Cc1ccc(N=Nc2c(O)c(S(=O)(=O)O)cc3cc(S(=O)(=O)O)ccc23)c(C)c1, the carcinogen call (Species: MOUSE, Route: ORAL, Tumor Site: Type of Lesion: LIVER) was “active; positive” and the carcinogen call (Species: RAT, Route: ORAL, Tumor Site: Type of Lesion: LIVER) was “active; positive”.

Cc1cccc(C)c1N was tested, and the carcinogen call (Species: RAT, Strain/Sex: CD/FEMALE, Route: ORAL, Dose: 0, 300, 1000, 3000 PPM IN FEED FOR 102 WK (STUDY DURATION: 104 WK), Dose: 0, 300, 1000, 3000 PPM IN FEED FOR 102 WK (STUDY DURATION: 104 WK), Tumor Site: Type of Lesion: SUBCUTANEOUS TISSUE: FIBROMA, FIBROMA OR FIBROSARCOMA, NASAL CAVITY: PAPILLARY ADENOMA, ADENOMA OR PAPILLARY ADENOMA, CA) was “active; positive” and the carcinogen call (Species: RAT, Strain/Sex: CD/MALE, Route: ORAL, Dose: 0, 300, 1000, 3000 PPM IN FEED FOR 102 WK (STUDY DURATION: 104 WK), Dose: 0, 300, 1000, 3000 PPM IN FEED FOR 102 WK (STUDY DURATION: 104 WK), Tumor Site: Type of Lesion: SUBCUTANEOUS TISSUE: FIBROMA, FIBROMA OR NEUROFIBROMA, FIBROMA OR FIBROSARCOMA, NASAL CAVITY: PAPILLARY ADENOMA, CARCINO) was “active; positive”.

For c1ccc2c(c1)ccc1c3ccccc3ccc21, the carcinogen call (Species: MOUSE, Route: DERMAL, Tumor Site: Type of Lesion: INTEGUMENTARY SYSTEM (SKIN)) was “active; positive”, the carcinogen call (Species: MOUSE, Strain/Sex: ICR/FEMALE, Route: DERMAL, Dose: 0, 0.1 MG, 3/WK FOR 17 MO, Tumor Site: Type of Lesion: INTEGUMENTARY SYSTEM (SKIN): CARCINOMA) was “active; positive” and the carcinogen call (Species: MOUSE, Strain/Sex: ICR/FEMALE, Route: INTRAPERITONEAL, Dose: 0, 6.3 UG TOTAL DOSE (0.9 UG/5 µL, 1.8 UG/10 µL, 3.6 UG/20 µL DMSO ON DAYS 1, 8 AND 15), 210 UG TOTAL DOSE (30 UG/5 µL,, Dose: 0, 6.3 UG TOTAL DOSE (0.9 UG/5 µL, 1.8 UG/10 µL, 3.6 UG/20 µL DMSO ON DAYS 1, 8 AND 15), 210 UG TOTAL DOSE (30 UG/5 µL) was “inactive; negative”. For the same compound, the carcinogen call (Species: MOUSE, Strain/Sex: ICR/MALE, Route: INTRAPERITONEAL, Dose: 0, 6.3 UG TOTAL DOSE (0.9 UG/5 µL, 1.8 UG/10 µL, 3.6 UG/20 µL DMSO ON DAYS 1, 8 AND 15), 210 UG TOTAL DOSE (30 UG/5 µL,, Dose: 0, 6.3 UG TOTAL DOSE (0.9 UG/5 µL, 1.8 UG/10 µL, 3.6 UG/20 µL DMSO ON DAYS 1, 8 AND 15), 210 UG TOTAL DOSE (30 UG/5 µL) was “inactive; negative” and the carcinogen call (Species: RAT, Strain/Sex: OSBORNE-MENDEL/FEMALE, Route: INTRAPULMONARY IMPLANT, Dose: 0, 1, 3 MG IN BEESWAX AND TRIOCTANOIN IMPLANTED IN LUNG (STUDY DURATION: 141 WK), Dose: 0, 1, 3 MG IN BEESWAX AND TRIOCTANOIN IMPLANTED IN LUNG (STUDY DURATION: 141 WK), Tumor Site: Type of Lesion: LUNG: CARCINOMA) was “active; positive”.
